Reference: patent publication US9914722B2, “Compounds for treating spinal muscular atrophy” (PTC Therapeutics Inc., priority 2012, dated 2018)
“Also recorded” adds a separate entry of the source.

Legend:
[1] = tested on: human SMN1 minigene full length and Δ7 mRNA (SMN1-A minigene); assay: Human SMN1 minigene mRNA end-point semi-quantitative RT-PCR splicing assay in cultured cells; assay type: cell-based; conditions: HEK293H cells transfected with SMN1-A minigene, 7 hour, increasing concentrations, FIG. 8
From the text: Human SMN1 Minigene mRNA End-Point Semi-Quantitative RT-PCR Splicing Assay in Cultured Cells
The RT-PCR assay is used to visualize and quantify the levels of the human SMN1 minigene full length and Δ7 mRNA in primary cells and cell lines expressing the human SMN1 minigene construct treated with a test compound.
Using the procedure for the preparation of the SMN2 minigene construct described in Biological Example 1, the SMN1 version of the minigene is generated by replacing the sixth nucleotide of exon 7 (a thymine residue) of the SMN2-A minigene construct to cytosine using site-directed mutagenesis. Thus, similar to the SMN2-A minigene construct, the SMN1 minigene construct has a single adenine residue inserted after nucleic residue 48 of exon 7. The SMN1 minigene construct is referred to as SMN1-A.
Protocol. HEK293H cells (10,000 cells/well/199 μL) were transfected, using FuGENE-6 reagent, in a 96-well plate with 15 ng of the SMN1-A minigene reporter plasmid per well. Cells were incubated for 24 hours following transfection. Test compounds were serially diluted 3.16-fold in 100% DMSO to generate a 7-point concentration curve. A solution of test compound (1 μL, 200× in DMSO) was added to each test well. 1 μL DMSO was added to each control well. The plate was incubated for 7 hours in a cell culture incubator (37° C., 5% CO2, 100% relative humidity). The cells were then lysed in Cells-To-Ct lysis buffer and the lysates were stored at −80° C.
Two SMN spliced mRNA are generated from the SMN1 minigene. The term “SMN1 minigene FL” refers to the first spliced product containing exon 7, corresponding to full length SMN1 mRNA. The term “SMN1 minigene Δ7” refers to the second product lacking exon 7.
SMN1 minigene FL and SMN1 minigene Δ7 mRNA are amplified using the primers in Table 11. Primer SMN Forward C (SEQ ID NO. 11) hybridizes to a nucleotide sequence in exon 6 (nucleotide 43 to nucleotide 63), primer SMN Reverse A (SEQ ID NO. 2) hybridizes to a nucleotide sequence in the coding sequence of Firefly luciferase. The combination of these two oligonucleotides detects only SMN1 or SMN2 minigenes (RT-PCR) and will not detect endogenous SMN1 or SMN2 genes. Since the HEK293H cells used in Example 16 were transfected with only the human SMN1 minigene, RT-PCR can visualize and quantify only SMN1 minigene FL and SMN1 minigene Δ7 mRNA.
(§1) To synthesize cDNA, 5 μL of lysate, 4 μL of 5× iScript reaction mix, 1 μL of reverse transcriptase, and 10 μL of water are combined and incubated 5 min at 25° C. followed by 30 min at 42° C., followed by 5 min at 85° C. The cDNA solution is stored at −20° C.
To perform endpoint PCR, 5 μL of cDNA, 0.2 μL of 100 μM forward primer, 0.2 μL of 100 μM reverse primer, and 22.5 μL of polymerase super mix are combined in a 96 well semiskirted PCR plate. […]

[2] = tested on: SMN2 full length and Δ7 mRNA; assay: Endogenous SMN2 mRNA end-point semi-quantitative RT-PCR splicing assay in cultured cells; assay type: cell-based, human; conditions: 24 hr, FIG. 5; for SMN2 FL mRNA (gel band) / SMN2 Δ7 mRNA (gel band): GM03813 Type 1 SMA patient fibroblasts, increasing concentrations; for SMN2 alternative splicing: Type 1 SMA patient fibroblasts, rising concentrations
Experimental: Endogenous SMN2 mRNA End-Point Semi-Quantitative RT-PCR Splicing Assay in Cultured Cells
The endpoint reverse transcription-PCR splicing assay is used to visualize and quantify the levels of the SMN2 full length and Δ7 mRNA in primary cells and cell lines containing the SMN2 gene treated with a test compound.
Protocol. GM03813 SMA patient cells (5,000 cells/well) are seeded in 200 μL of cell culture medium (DMEM plus 10% FBS) in 96-well flat-bottom plates and the plate is immediately swirled to ensure proper dispersal of cells, forming an even monolayer of cells. Cells are allowed to attach for at least 4-6 hrs. Test compounds are serially diluted 3.16-fold in 100% DMSO to generate a 7-point concentration curve. A solution of test compound (1 μL, 200× in DMSO) is added to each test well and 1 μL DMSO is added to each control well. The plate is incu bated for 24 hrs in a cell culture incubator (37° C., 5% CO2, 100% relative humidity). The cells are then lysed in Cells-To-Ct lysis buffer and the lysate is stored at −80° C.
SMN FL and Δ7 mRNA are identified using the following primers in Table 6. These primers hybridize to a nucleotide sequence in exon 6 (SMN Forward C, SEQ ID NO. 11) (nucleotide 43 to nucleotide 63) and exon 8 (SMN Reverse C, SEQ ID NO. 12) (nucleotide 51 to nucleotide 73) common to human SMN1 and SMN2 mRNA. Since the SMA patient cells used in Example 4 contain only the SMN2 gene, RT-PCR can visualize and quantify only SMN2 full-length and SMN2 Δ7 mRNA.
as §1
To perform endpoint PCR, 5 μL of cDNA, 0.2 μL of 100 μM forward primer, 0.2 μL of 100 μM reverse primer, and 22.5 μL of polymerase super mix are combined in a 96 well semiskirted PCR plate. PCR is carried out at the following temperatures for the indicated time: Step 1: 94° C. (2 min), Step 2: 94° C. (30 sec), Step 3: 55° C. (30 sec), Step 4: 68° C. (1 min), then repeat Steps 2 to 4 for a total of 33 cycles, then hold at 4° C.
10 μL of each PCR sample is electrophoretically separated on a 2% agarose E-gel for 14 minutes stained with double-stranded DNA (dsDNA) staining reagents (e.g., ethidium bromide) and visualized using a gel imager.

| Compound | SMN1 minigene FL mRNA (gel band) [1] | SMN1 minigene Δ7 mRNA (gel band) [1] | SMN2 FL mRNA (gel band) [2] | SMN2 Δ7 mRNA (gel band) [2] | SMN2 alternative splicing [2] | melting point [°C] |
| --- | --- | --- | --- | --- | --- | --- |
| COc1ccc(-c2cc(=O)c3cc(N4CCN[C@@H](C)C4)ccc3o2)cc1F [Cpd 38, 2-(3-fluoro-4-methoxyphenyl)-6-[(3S)-3-methylpiperazin-1-yl]-4H-chromen-4-one] | progressively more SMN1 minigene FL mRNA; also recorded: dose dependent increase in SMN1 minigene full-length mRNA | less SMN1 minigene Δ7 mRNA; also recorded: dose dependent decrease in SMN1 minigene Δ7 mRNA | progressively more SMN2 FL mRNA | less SMN2 Δ7 mRNA | correction of SMN2 alternative splicing | 100 to 102 |
| C[C@@H]1CN(c2ccc3oc(-c4cn5ccccc5n4)cc(=O)c3c2)C[C@H](C)N1 [Cpd 17, 6-[(3R,5S)-3,5-dimethylpiperazin-1-yl]-2-(imidazo[1,2-a]pyridin-2-yl)-4H-chromen-4-one] | progressively more SMN1 minigene FL mRNA; also recorded: dose dependent increase in SMN1 minigene full-length mRNA | less SMN1 minigene Δ7 mRNA; also recorded: dose dependent decrease in SMN1 minigene Δ7 mRNA | progressively more SMN2 FL mRNA | less SMN2 Δ7 mRNA | correction of SMN2 alternative splicing | 208 to 210 |
